Legend:
[1] = Particle size distribution of ORZY-05 by static automated imaging (Morphologi 4); format: physicochemical; settings: ORZY-05 particles
Method: The materials and methods were essentially as in Example 7. In the present example, the cooling time of the cooling step of from 30° C. to 0° C. subsequent to addition of acetone was varied and its influence on the particle size of ORZY-05 was determined. The cooling time is a measure of how long it takes to reach 0° C. from 30° C. The particle size distribution (PSD) data shown in Table 3 were acquired using static automated imaging (Morphology 4).
Morphologi 4: The Particle size distribution of Arimoclomol citrate (ORZY-05) was also measured using a Malvern Morphologi 4 equipment.
Wet measurement was used for the needle shaped particles. […] Measurements were made using a thin path wet cell (75*75 mm). Samples were prepared by adding 20 mL of dispersant to 10 mg of API, followed by 30 s of stirring and 2 min of sonication in order to break the agglomerates. A microscope magnifier of X10 or X20 was used, and segmentation sharp edge and/or thresholding was used to improve the focus microscope focus.

[2] = Particle size distribution of ORZY-05 by Malvern Mastersizer 3000; format: physicochemical; settings: ORZY-05 particles, Malvern Mastersizer 3000, volume distribution
Method: Further batches of ORZY-05 were prepared essentially as in Example 7 and the ORZY-05 particles were examined using Malvern Mastersizer 3000 as described in Example 11.
Malvern Mastersizer 3000: Particle size distribution of Arimoclomol citrate (ORZY-05) was determined by light scattering using a Malvern Mastersizer 3000 particle size analyzer (Malvern Instruments Ltd, Grovewood Road, Malvern, Worcestershire WR14 1XZ, United Kingdom) with a Hydro MV wet-dispersion unit attached. 2-Propanol with 1.8 g/L SPAN-85 additive was used as a dispersion medium (“dispersant”) and added to the dispersion unit. Prior to sample addition, the background counts of the system were determined by circulating the dispersant through the measurement cell under measurement conditions (2500 rpm stirrer speed). Samples for analysis were prepared by adding a suitable amount of Arimoclomol citrate to a 10 mL vial and pre-dispersing it with dispersant under light agitation for a few seconds. The pre-dispersed sample was then pipetted into the Hydro MV dispersion unit filled with dispersant to meet a laser obscuration range of 10-15%. A single-use PE pipette was used for this and representative sampling from the 10 mL vial was ensured by continuous agitation. […] Volume distributions were obtained and the D10, D50 and D90 were calculated from these distributions and reported. For each sample, a single sample preparation was analyzed using red light measurement only. Upon measurement completion, the sample cell was emptied and cleaned.

| Compound | Number CE Diameter D10 [1] [μm] | Number CE Diameter D50 [1] [μm] | Number CE Diameter D90 [1] [μm] | Number CE Diameter Mean [1] [μm] | Number Length D10 [1] [μm] | Number Length D50 [1] [μm] | Number Length D90 [1] [μm] | Volume CE Diameter D10 [1] [μm] | Volume CE Diameter D50 [1] [μm] | Volume CE Diameter D90 [1] [μm] | Volume CE diameter D[3,2] [1] [μm] | Volume CE diameter D[4,3] [1] [μm] | D10 [2] [μm] | D50 [2] [μm] | D90 [2] [μm] |
| --- | --- | --- | --- | --- | --- | --- | --- | --- | --- | --- | --- | --- | --- | --- | --- |
| O=C(O)CC(O)(CC(=O)O)C(=O)O.[O-][n+]1cccc(/C(Cl)=N/OC[C@H](O)CN2CCCCC2)c1 [compound 1004, arimoclomol citrate] | 1.05 | 2.86 | 13.33 | 5.31 | 2.82 | 6.18 | 24.80 | 12.62 | 25.00 | 43.46 | 20.53 | 27.06 | 8.00 | 22.00 | 68.00 |
| O=C(O)CC(O)(CC(=O)O)C(=O)O.[O-][n+]1cccc(/C(Cl)=N/OC[C@H](O)CN2CCCCC2)c1 [18-003, arimoclomol citrate] | 4.40 | 21.80 | 38.20 | 22.10 | 8.00 | 29.90 | 56.10 | 24.00 | 37.60 | 58.30 | 35.40 | 41.10 | – | – | – |
| O=C(O)CC(O)(CC(=O)O)C(=O)O.[O-][n+]1cccc(/C(Cl)=N/OC[C@H](O)CN2CCCCC2)c1 [compound 1001, arimoclomol citrate] | 2.41 | 5.28 | 17.81 | 8.16 | 2.90 | 7.03 | 26.69 | 13.10 | 25.95 | 47.14 | 21.77 | 29.46 | 7.00 | 21.00 | 63.00 |
| O=C(O)CC(O)(CC(=O)O)C(=O)O.[O-][n+]1cccc(/C(Cl)=N/OC[C@H](O)CN2CCCCC2)c1 [compound 2004, arimoclomol citrate] | – | – | – | – | – | – | – | – | – | – | – | – | 10.2 | 34.8 | 87 |
| O=C(O)CC(O)(CC(=O)O)C(=O)O.[O-][n+]1cccc(/C(Cl)=N/OC[C@H](O)CN2CCCCC2)c1 [17-004, arimoclomol citrate] | 0.80 | 2.00 | 23.50 | 6.70 | 1.50 | 4.00 | 40.70 | 24.60 | 38.90 | 52.20 | 34.20 | 38.80 | – | – | – |
| O=C(O)CC(O)(CC(=O)O)C(=O)O.[O-][n+]1cccc(/C(Cl)=N/OC[C@H](O)CN2CCCCC2)c1 [17-001, arimoclomol citrate] | 0.60 | 1.60 | 9.40 | 3.70 | 1.70 | 4.70 | 22.00 | 9.40 | 24.70 | 44.40 | 17.70 | 25.70 | – | – | – |
| O=C(O)CC(O)(CC(=O)O)C(=O)O.[O-][n+]1cccc(/C(Cl)=N/OC[C@H](O)CN2CCCCC2)c1 [compound 2003, arimoclomol citrate] | – | – | – | – | – | – | – | – | – | – | – | – | 4.65 | 13.5 | 40.7 |
| O=C(O)CC(O)(CC(=O)O)C(=O)O.[O-][n+]1cccc(/C(Cl)=N/OC[C@H](O)CN2CCCCC2)c1 [18-004, arimoclomol citrate] | 3.70 | 12.00 | 29.20 | 14.90 | 5.30 | 15.40 | 40.00 | 19.40 | 39.80 | 81.20 | 33.90 | 45.90 | – | – | – |
| O=C(O)CC(O)(CC(=O)O)C(=O)O.[O-][n+]1cccc(/C(Cl)=N/OC[C@H](O)CN2CCCCC2)c1 [compound 2005, arimoclomol citrate] | – | – | – | – | – | – | – | – | – | – | – | – | 11.2 | 35.6 | 82.6 |
| O=C(O)CC(O)(CC(=O)O)C(=O)O.[O-][n+]1cccc(/C(Cl)=N/OC[C@H](O)CN2CCCCC2)c1 [compound 2002, arimoclomol citrate] | – | – | – | – | – | – | – | – | – | – | – | – | 4.33 | 12.5 | 37.9 |
| O=C(O)CC(O)(CC(=O)O)C(=O)O.[O-][n+]1cccc(/C(Cl)=N/OC[C@H](O)CN2CCCCC2)c1 [compound 1003, arimoclomol citrate] | 0.89 | 3.34 | 14.14 | 5.79 | 4.20 | 9.50 | 25.49 | 10.66 | 20.58 | 34.54 | 17.52 | 22.10 | 6.00 | 17.00 | 47.00 |
| O=C(O)CC(O)(CC(=O)O)C(=O)O.[O-][n+]1cccc(/C(Cl)=N/OC[C@H](O)CN2CCCCC2)c1 [compound 2001, arimoclomol citrate] | – | – | – | – | – | – | – | – | – | – | – | – | 17.2 | 47.2 | 112 |
| O=C(O)CC(O)(CC(=O)O)C(=O)O.[O-][n+]1cccc(/C(Cl)=N/OC[C@H](O)CN2CCCCC2)c1 [17-003, arimoclomol citrate] | 1.00 | 2.00 | 5.80 | 2.90 | 1.40 | 3.20 | 10.50 | 4.60 | 11.10 | 26.70 | 8.80 | 13.70 | – | – | – |
| O=C(O)CC(O)(CC(=O)O)C(=O)O.[O-][n+]1cccc(/C(Cl)=N/OC[C@H](O)CN2CCCCC2)c1 [17-002, arimoclomol citrate] | 0.70 | 2.20 | 7.40 | 3.40 | 1.10 | 3.20 | 13.90 | 6.20 | 14.00 | 35.00 | 11.40 | 17.10 | – | – | – |
| O=C(O)CC(O)(CC(=O)O)C(=O)O.[O-][n+]1cccc(/C(Cl)=N/OC[C@H](O)CN2CCCCC2)c1 [18-002, arimoclomol citrate] | 0.90 | 2.20 | 10.10 | 4.20 | 1.50 | 3.60 | 16.60 | 10.90 | 22.70 | 36.00 | 17.90 | 23.30 | – | – | – |
| O=C(O)CC(O)(CC(=O)O)C(=O)O.[O-][n+]1cccc(/C(Cl)=N/OC[C@H](O)CN2CCCCC2)c1 [compound 2006, arimoclomol citrate] | – | – | – | – | – | – | – | – | – | – | – | – | 11.6 | 35.6 | 77.7 |
| O=C(O)CC(O)(CC(=O)O)C(=O)O.[O-][n+]1cccc(/C(Cl)=N/OC[C@H](O)CN2CCCCC2)c1 [18-001, arimoclomol citrate] | 0.80 | 2.50 | 10.70 | 4.60 | 1.80 | 4.10 | 16.80 | 11.20 | 26.40 | 37.60 | 19.50 | 25.40 | – | – | – |

— patent publication US20230416224A1, “PROCESSES FOR PREPARING ARIMOCLOMOL CITRATE AND INTERMEDIATES THEREOF” (ZEVRA DENMARK A/S, priority 2020, published 2023)
